Test results published in paper PMC6523814, “Small-Molecule Host-Defense Peptide Mimetic Antibacterial and Antifungal Agents Activate Human and Mouse Mast Cells via Mas-Related GPCRs” (Cells, 2019).

System: Candida albicans (ATCC GDH2346)
Assay: Fungus MIC assay (CLSI C27-A3)
Format: cell-based
Conditions: Candida albicans; RPMI/MOPS pH 7.0, 35 °C, 48 h
Experimental: (§1) Fungal strains included a clinical isolate of Candida albicans (ATCC GDH2346), Aspergillus fumigatus (ATCC MYA-3626), and Aspergillus flavus (ATCC 204304). Minimum inhibitory concentration (MIC) assays were carried out in 96-well plates using the Clinical and Laboratory Standards Institute (CLSI) method C27-A3 for C. albicans and M38-A2 for Aspergillus species. smHDPMs, each in stock solutions of 10 mM in DMSO, were diluted in 50 µL RPMI/MOPS pH 7.0 in a 96-well plate and 50 µL of diluted yeast were added to each well. […] The plate was then incubated at 35 °C for 48 h. […] All MIC assays were performed in duplicate.
For C1=C(c2ccc(-c3cn(-c4ccc(C5=CCNCC5)cc4)nn3)cc2)CCNC1 [Compound 3], the MIC was greater than 100 µg/mL.

Same assay, conditions: RPMI/MOPS pH 7.0, 35 °C, 48 h
With C1=C(c2ccc(-c3cn(-c4ccc(C5=CCNCC5)cc4)nn3)cc2)CCNC1 [Compound 3] the “MIC C. albicans” value was greater than 100 µg/mL.

System: Aspergillus flavus (ATCC 204304)
Assay: Fungus MIC assay (CLSI M38-A2)
Format: cell-based
Conditions: Aspergillus flavus, ATCC204304; RPMI/MOPS pH 7.0, 35 °C, 48 h
Experimental: as §1
With C1=C(c2ccc(-c3cn(-c4ccc(C5=CCNCC5)cc4)nn3)cc2)CCNC1 [Compound 3] the MIC was greater than 100 µg/mL.

Same assay, conditions: RPMI/MOPS pH 7.0, 35 °C, 48 h
For C1=C(c2ccc(-c3cn(-c4ccc(C5=CCNCC5)cc4)nn3)cc2)CCNC1 [Compound 3], the “MIC A. flavus” value was greater than 100 µg/mL.

System: Aspergillus fumigatus (ATCC MYA-3626)
Assay: Fungus MIC assay (CLSI M38-A2)
Format: cell-based
Conditions: Aspergillus fumigatus; RPMI/MOPS pH 7.0, 35 °C, 48 h
Experimental: as §1
For C1=C(c2ccc(-c3cn(-c4ccc(C5=CCNCC5)cc4)nn3)cc2)CCNC1 [Compound 3], the MIC was greater than 100 µg/mL.

Same assay, conditions: RPMI/MOPS pH 7.0, 35 °C, 48 h
With C1=C(c2ccc(-c3cn(-c4ccc(C5=CCNCC5)cc4)nn3)cc2)CCNC1 [Compound 3] the “MIC A. fumigatus” value was greater than 100 µg/mL.

System: not listed separately
Assay: Cytotoxicity, MTS viability assay
Format: cell-based, mouse
Conditions: mouse, 3T3 fibroblasts (ATCC CRL-1658); 1 h exposure in serum-free medium, MTS
Experimental: (§2) Cytotoxicity (50% […] concentration, CC50) was determined against mouse 3T3 fibroblasts (ATCC CRL-1658) and human transformed liver HepG2 cells (ATCC HB-8065) using an MTS viability assay according to the manufacturer’s protocol (Promega CellTiter 96 aqueous nonradioactive cell proliferation assay). Briefly, 3T3 cells were seeded at 2 × 10^4 cells/well in Dulbecco’s modified Eagle’s medium (DMEM) supplemented with 10% bovine calf serum and HepG2 cells were seeded at 3 × 10^4 cells/well in MEM supplemented with 10% fetal bovine serum. After 24 h of growth, the culture medium was replaced with medium lacking serum, and eight two-folds dilutions of each of the five compounds were added. […] Following incubation for 1 h at 37 °C, compound solutions were removed and medium containing serum was replenished. Viability was determined by addition of the tetrazolium compound, MTS, and the electron coupling agent, PMS, and then incubation at 37 °C for 2 h (3T3 cells) or 3 h (HepG2 cells) followed by absorbance measurements at 490 nm. The CC50 was calculated using GraphPad Prism software (nonlinear fit).
C1=C(c2ccc(-c3cn(-c4ccc(C5=CCNCC5)cc4)nn3)cc2)CCNC1 [Compound 3] gave a CC50 at 1 h of 60 µM.

System: not listed separately
Assay: Cytotoxicity, MTS viability assay
Format: cell-based, human
Conditions: human, HepG2 cells (ATCC HB-8065); 1 h exposure in serum-free medium, MTS
Experimental: as §2
C1=C(c2ccc(-c3cn(-c4ccc(C5=CCNCC5)cc4)nn3)cc2)CCNC1 [Compound 3] gave a CC50 at 1 h of 111 µM.

Target: T1, MRGPRX2 (Homo sapiens, UniProt Q96LB1)
T1 construct: HA (hemagglutinin)
T1 sequence (Q96LB1 1-330): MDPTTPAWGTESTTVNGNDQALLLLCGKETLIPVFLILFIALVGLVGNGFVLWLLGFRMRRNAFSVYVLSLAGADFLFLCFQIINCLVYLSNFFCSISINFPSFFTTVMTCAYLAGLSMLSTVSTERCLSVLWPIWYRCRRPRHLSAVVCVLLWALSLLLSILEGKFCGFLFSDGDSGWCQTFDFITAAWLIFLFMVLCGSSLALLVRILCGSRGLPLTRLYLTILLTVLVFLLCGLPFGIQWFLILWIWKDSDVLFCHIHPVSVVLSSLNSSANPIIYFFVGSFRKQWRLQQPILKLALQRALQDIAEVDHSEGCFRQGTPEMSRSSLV
Assay: Degranulation (β-hexosaminidase release) in RBL-2H3 cells expressing MRGPRX2
Format: cell-based
Conditions: RBL-2H3 cells stably expressing MRGPRX2, 30 min
Experimental: The human mast cell line, LAD2, was maintained in complete StemPro-34 medium supplemented with L-glutamine (2 mM), penicillin (100 IU/mL), streptomycin (100 μg/mL), and 100 ng/mL recombinant human stem cell factor (rhSCF). Hemidepletions were performed weekly with media containing rhSCF (100 ng/mL). Rat basophilic leukemia (RBL-2H3) cells were maintained as monolayer cultures in DMEM supplemented with 10% FBS, L-glutamine (2 mM), penicillin (100 IU/mL), and streptomycin (100 μg/mL). Peritoneal mast cells (PMCs) were obtained from 6–8 weeks old C57BL/6 and Mrgprb2^-/- (C57BL/6 background) mice using i.p. injection of 8 mL MC disassociation medium that was made of HBSS with 3% FCS and 10 mM HEPES. The cells were cultured in Iscove’s Modified Dulbecco’s Medium (IMDM) supplemented with 10% FCS, murine IL-3 (10 ng/mL), and murine SCF (30 ng/mL). After 48 h, the medium and the suspended cells were removed and replaced with fresh medium containing murine IL-3 (10 ng/mL) and murine SCF (30 ng/mL). The floating cells were then used for the experiment within 2–3 weeks. Bone-marrow-derived mast cells (BMMCs) were harvested by flushing bone marrow cells from the femurs of C57BL/6 mice and culturing the cells for 4–8 weeks in IMDM supplemented with 10% FCS, murine IL-3 (10 ng/mL). The cells were then used within 4–8 weeks.
Cells (2 ×10^6) were transfected with plasmids (2 µg/µL) encoding MRGPRX2 or MRGPRX2 missense mutants using the Amaxa kit V using Amaxa Nucleofector device according to the manufacturer’s protocol. For stable transfection, cells were cultured in the presence of G-418 (1 mg/mL) and used within one month of transfection. For transient transfection, cells were used within 16–20 h after transfection. To detect MRGPRX2 expression, cells (1 × 10^6) were incubated with the PE-conjugated anti-MRGPRX2 antibody, washed in FACS buffer, fixed, and analyzed on a BD LSR II flow cytometer.
RBL-2H3 cells (5 × 10^4), LAD2 cells (10 × 10^4), and PMCs (5 × 10^3), BMMCs (5 × 10^4), were seeded into 96-well plates in a total volume of 50 μl HEPES buffer containing 0.1% bovine serum albumin (BSA) and exposed to ligands for 30 min. Cells without treatment were designated as control. In some experiments, cells were treated with Pertussis toxin (PTx). For total β-hexosaminidase release, unstimulated cells were lysed in 50 μl of 0.1% Triton X-100. Aliquots (20 μl) of supernatants or cell lysates were incubated with 20 μl of 1 mM p-nitrophenyl-N-acetyl-β- D-glucosamine for 1 h at 37 °C. The reaction was stopped by adding 250 μl of a 0.1 M Na2CO3/0.1 M NaHCO3 buffer and absorbance was measured at 405 nm.
In the case of C1=C(c2ccc(-c3cn(-c4ccc(C5=CCNCC5)cc4)nn3)cc2)CCNC1 [Compound 3], the EC50 is reported as 1.8 µM.
